Measurements taken from US20240336593A1, “Compound Having Antitumor Activity And Use Thereof” (lnnovStoneTherapeutics Limited, priority 2020, published 2024).
pIC50: −log10 of the molar value.

target: PRMT5 (Homo sapiens (Human), UniProt O14744); assay: Inhibitory activity against PRMT5 enzyme by radioisotopic method; type: biochemical; conditions: PRMT5 5 nM, [3H]-SAM 0.3 μM, polypeptide substrate GL-27 100 nM, room temperature
Procedure: Test Example 1. Test on the inhibitory activity of the compounds of the invention against PRMT5 enzyme by radioisotopic method
Test method: A 1× enzyme reaction buffer (10 mM Tris 8.0 (Sigma, Cat. No. T2694-1L), 0.01% Tween-20 (Sigma, Cat. No. P2287-100 ML), 1 mM DTT (Sigma, Cat. No. D0632-10G)) was prepared. PRMT5 (Active Motif, Cat. No. 31921) and [3H]—SAM (PerkinElmer, Cat. No. NET155V001MC) were added to the 1×enzyme reaction buffer, to prepare a 25/15× mixed solution (PRMT5 final concentration: 5 nM, [3H]—SAM final concentration: 0.3 μM). 15 μL of this solution was transferred into a 384-well microplate (Corning 384-well Polypropylene Storage Microplates, Cat. No. 3657) with various concentrations of the compounds (DMSO final concentration 1%), and incubated at room temperature for 60 minutes. A polypeptide substrate, GL-27 (Ac-[…]-K (Biotin) (GL Biochem, Cat. No. 342095)), was added into the 1×enzyme reaction buffer to prepare a 25/10× substrate solution. Then 10 μL of the polypeptide substrate solution (final concentration of the polypeptide substrate: 100 nM) was added, a reaction was stirred at room temperature for 120 minutes, and then 5 μL 6× ice cold SAM (Sigma, Cat. No. A7007-100 MG) solution was added to stop the reaction (SAM final concentration: 0.125 mM). 25 µL of the reaction mixture was transferred into a FlashPlate (Streptavidin FlashPlate HTS PLUS, High Capacity, 384-well, Perkin Elmer, Cat. No. SMP410A001PK), and incubated at room temperature for 1 h. After washed three times with distilled water containing 0.1% Tween-20, the microplate was read on a MicroBeta reader for CPM data (Counts Per Minute). […] Then the inhibition rate Inh % (Y) corresponding to each concentration (X) was input in EXCEL, and the IC50 value (the half maximal inhibitory concentration) of each compound was calculated with the XLfit plug-in according to the built-in four-parameter fitting equation Y=Bottom+(Top-Bottom)/(1+(IC50/X)[…]).

PRMT5, sequence (O14744 whole entry): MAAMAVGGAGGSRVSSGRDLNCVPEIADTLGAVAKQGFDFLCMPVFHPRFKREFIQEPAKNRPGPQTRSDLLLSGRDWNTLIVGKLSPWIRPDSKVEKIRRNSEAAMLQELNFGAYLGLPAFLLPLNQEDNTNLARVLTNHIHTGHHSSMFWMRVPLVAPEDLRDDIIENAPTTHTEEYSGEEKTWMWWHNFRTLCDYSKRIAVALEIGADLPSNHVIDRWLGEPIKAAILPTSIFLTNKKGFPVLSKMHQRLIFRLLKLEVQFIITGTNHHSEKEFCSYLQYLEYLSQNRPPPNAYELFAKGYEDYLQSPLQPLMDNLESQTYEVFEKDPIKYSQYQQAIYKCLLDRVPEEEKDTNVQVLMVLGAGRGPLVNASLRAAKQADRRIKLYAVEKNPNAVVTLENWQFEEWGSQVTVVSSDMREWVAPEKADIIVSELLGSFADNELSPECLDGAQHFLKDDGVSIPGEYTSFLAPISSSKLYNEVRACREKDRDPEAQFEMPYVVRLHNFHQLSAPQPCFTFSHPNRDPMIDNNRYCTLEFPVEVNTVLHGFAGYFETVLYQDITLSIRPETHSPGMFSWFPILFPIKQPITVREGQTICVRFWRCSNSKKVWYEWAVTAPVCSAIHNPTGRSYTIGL
PRMT5, sequence (Q9BQA1 whole entry partner): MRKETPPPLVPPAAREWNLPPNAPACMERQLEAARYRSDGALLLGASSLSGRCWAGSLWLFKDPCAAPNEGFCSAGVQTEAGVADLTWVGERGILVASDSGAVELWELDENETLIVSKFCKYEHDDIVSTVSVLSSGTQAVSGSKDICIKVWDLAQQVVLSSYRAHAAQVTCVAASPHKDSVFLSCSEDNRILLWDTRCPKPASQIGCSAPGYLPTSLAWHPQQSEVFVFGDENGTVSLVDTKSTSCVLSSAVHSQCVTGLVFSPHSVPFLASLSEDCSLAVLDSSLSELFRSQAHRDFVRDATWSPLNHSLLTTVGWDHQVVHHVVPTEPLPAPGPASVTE

pIC50 | Structure (SMILES)
> 7.00 | COC(=O)N1CCC(Nc2cc(C(=O)N3CC[C@H](N4CCc5ccccc5C4)[C@@H](O)C3)ncn2)CC1 (relative stereo) [Example 123, methyl trans-4-((6-(4-(3,4-dihydroisoquinolin-2(1H)-yl)-3-hydroxypiperidine-1-carbonyl)pyrimidin-4-yl)amino)piperidine-1-carboxylate]
> 7.00 | CNC(=O)c1cccc(Nc2cc(C(=O)N3CC[C@H](N4CCc5ccccc5C4)[C@@H](O)C3)ncn2)c1 (relative stereo) [Example 134, trans-3-((6-(4-(3,4-dihydroisoquinolin-2(1H)-yl)-3-hydroxypiperidine-1-carbonyl)pyrimidin-4-yl)amino)-N-methylbenzamide]
> 7.00 | CC(=O)N1CCC(Oc2cc(C(=O)N3CC[C@@H](N4CCc5ccccc5C4)[C@H](O)C3)ncn2)CC1 (relative stereo) [Example 142, trans-1-(4-((6-(4-(3,4-dihydroisoquinolin-2(1H)-yl)-3-hydroxypiperidine-1-carbonyl)pyrimidin-4-yl)oxy)piperidin-1-yl)ethan-1-one]
> 7.00 | CC(=O)N1CCC(Nc2cc(C(=O)N3CC[C@H](N4CCc5ccccc5C4)[C@@H](O)C3)nc(N3CCOCC3)n2)CC1 (relative stereo) [Example 144, 1-(4-((6-(trans-4-(3,4-dihydroisoquinolin-2(1H)-yl)-3-hydroxypiperidine-1-carbonyl)-2-morpholinopyrimidin-4-yl)amino)piperidin-1-yl)ethan-1-one]
> 7.00 | O[C@@H]1CN(c2cc(Nc3cccc(Cl)c3Cl)ncn2)CC[C@H]1N1CCc2ccccc2C1 [Example 89]
> 7.00 | COCCN1CCC(Nc2cc(C(=O)N3CC[C@H](N4CCc5ccccc5C4)[C@@H](O)C3)ncn2)CC1 [Example 96]
> 7.00 | O=C(c1cc(Nc2ccccc2)ncn1)N1CC[C@H](N2CCc3ccccc3C2)[C@@H](O)C1 [Example 101]
> 7.00 | O=C(c1cc(NC2CCOCC2)ncn1)N1CC[C@H](N2CCc3ccccc3C2)[C@@H](O)C1 [Example 109]
> 7.00 | CC(=O)N1CCC(Nc2cc(C(=O)N3CC[C@@H](N4CCc5ccccc5C4)[C@H](O)C3)nc(OC(F)(F)F)n2)CC1 [Example 151, 1-(4-((6-((3R,4R)-4-(3,4-dihydroisoquinolin-2(1H)-yl)-3-hydroxypiperidine-1-carbonyl)-2-(trifluoromethoxy)pyrimidin-4-yl)amino)piperidin-1-yl)ethan-1-one]
> 7.00 | CC(=O)N1CCC(Nc2cc(C(=O)N3CC[C@@H](N4CCc5ccccc5C4)[C@H](O)C3)nc(-c3ccc(C)s3)n2)CC1 [Example 153, 1-(4-((6-((3R,4R)-4-(3,4-dihydroisoquinolin-2(1H)-yl)-3-hydroxypiperidine-1-carbonyl)-2-(5-methylthiophen-2-yl)pyrimidin-4-yl)amino)piperidin-1-yl)ethan-1-one]

Further lines, the compound ahead of its results:

Structure (SMILES) | pIC50
CNC(=O)c1ccc(Nc2cc(C(=O)N3CC[C@H](N4CCc5ccccc5C4)[C@@H](O)C3)ncn2)cc1 (relative stereo) [Example 131, trans-4-((6-(4-(3,4-dihydroisoquinolin-2(1H)-yl)-3-hydroxypiperidine-1-carbonyl)pyrimidin-4-yl)amino)-N-methylbenzamide] | > 7.00
Cc1ccc(Nc2cc(N3CC[C@H](N4CCc5ccccc5C4)[C@@H](O)C3)ncn2)cc1 [Example 41, trans-1-(6-((4-methylphenyl)amino)pyrimidin-4-yl)-4-(3,4-dihydroisoquinolin-2(l H)-yl)piperidin-3-ol] | > 7.00
O[C@H]1CN(c2cc(Nc3cccc4c3OCO4)ncn2)CC[C@@H]1N1CCc2ccccc2C1 [Example 83, trans-1-(6-(benzo[d][1,3]dioxazol-4-ylamino)pyrimidin-4-yl)-4-(3,4-dihydroisoquinolin-2(1H)-yl)piperidin-3-ol] | > 7.00
O=C(c1cc(N2CC[C@H](N3CCc4ccccc4C3)[C@@H](O)C2)ncn1)N1CC[C@H](N2CCc3ccccc3C2)[C@@H](O)C1 [Example 97] | > 7.00
CC(=O)N1CCC(CNc2cc(C(=O)N3CC[C@H](N4CCc5ccccc5C4)[C@@H](O)C3)ncn2)CC1 [Example 103] | > 7.00
CC(=O)N1CCC(Nc2cc(C(=O)N3CC[C@H](N4CCc5ccccc5C4)[C@@H](O)C3)nc(-c3ccccc3)n2)CC1 [Example 104] | > 7.00
O=C(c1cc(Nc2cccc(N3CCCC3)c2)ncn1)N1CC[C@H](N2CCc3ccccc3C2)[C@@H](O)C1 [Example 108] | > 7.00
CC(=O)N1CCC(Nc2cc(C(=O)N3CC[C@H](O)[C@@H](N4CCc5ccccc5C4)CC3)ncn2)CC1 [Example 124, 1-(4-((6-((4S,5S)-4-(3,4-dihydroisoquinolin-2(1H)-yl)-5-hydroxyazepane-1-carbonyl)pyrimidin-4-yl)amino)piperidin-1-yl)ethan-1-one] | > 7.00
O=C(c1cc(NC2CCN(CC(F)(F)F)CC2)ncn1)N1CC[C@H](O)[C@@H](N2CCc3ccccc3C2)CC1 [Example 127] | > 7.00
N#CC1CCC(Nc2cc(C(=O)N3CC[C@H](N4CCc5ccccc5C4)[C@@H](O)C3)ncn2)CC1 (stereo partly drawn) [Example 138, 4-((6-(trans-4-(3,4-dihydroisoquinolin-2(1H)-yl)-3-hydroxypiperidine-L-carbonyl)pyrimidin-4-yl)amino)cyclohexane-1-carbonitrile] | > 7.00
CC(=O)N1CCC(Nc2cc(C(=O)N3CC[C@H](N4CCc5ccccc5C4)[C@@H](O)C3)nc(-c3ccncc3)n2)CC1 [Example 139] | > 7.00
CC(=O)N1CCC(Nc2cc(C(=O)N3CC[C@@H](N4CCc5ccccc5C4)[C@H](O)C3)nc(OCC(C)C)n2)CC1 [Example 140, 1-(4-((6-((3R,4R)-4-(3,4-dihydro-4,4-dideuterium-isoquinolin-2(1H)-yl)-3-hydroxypiperidine-1-carbonyl)-2-isobutoxypyrimidin-4-yl)amino)piperidin-1-yl)ethan-1-one] | > 7.00
CCC(CC)Oc1nc(NC2CCN(C(C)=O)CC2)cc(C(=O)N2CC[C@@H](N3CCc4ccccc4C3)[C@H](O)C2)n1 [Example 141, 1-(4-((6-((3R,4R)-4-(3,4-dihydro-4,4-dideuterium-isoquinolin-2(1H)-yl)-3-hydroxypiperidine-1-carbonyl)-2-(pentane-3-oxy)pyrimidin-4-yl)amino)piperidin-1-yl)-ethan-1-one] | > 7.00
CC(=O)N1CCC(Nc2cc(C(=O)N3CC[C@@H](N4CCc5ccccc5C4)[C@H](O)C3)nc(N3CCN(C)CC3)n2)CC1 [Example 149, 1-(4-((6-((3R,4R)-4-(3,4-dihydroisoquinolin-2(1H)-yl)-3-hydroxypiperidine-1-carbonyl)-2-(4-methylpiperazin-1-yl)pyrimidin-4-yl)amino)piperidin-1-yl)ethan-1-one] | > 7.00
C#Cc1nc(NC2CCN(C(C)=O)CC2)cc(C(=O)N2CC[C@@H](N3CCc4ccccc4C3)[C@H](O)C2)n1 [Example 150, 1-(4-((6-((3R,4R)-4-(3,4-dihydroisoquinolin-2(1H)-yl)-3-hydroxypiperidine-1-carbonyl)-2-ethynylpyrimidin-4-yl)amino)piperidin-1-yl)ethan-1-one] | > 7.00
C=Cc1nc(NC2CCN(C(C)=O)CC2)cc(C(=O)N2CC[C@@H](N3CCc4ccccc4C3)[C@H](O)C2)n1 [Example 152, 1-(4-((6-((3R,4R)-4-(3,4-dihydroisoquinolin-2(1H)-yl)-3-hydroxypiperidine-1-carbonyl)-2-vinylpyrimidin-4-yl)amino)piperidin-1-yl)ethan-1-one] | > 7.00
